Measured values published in the NIST ThermoML archive (doi:10.1021/je200721d).
± gives the expanded uncertainty stated by the source.

Assay: xn = mol fraction of the nth substance listed
Conditions: Liquid, Vibrating tube method

With CCCCCCCCCC [decane] + CCCCCC as the compound, how does the mass density (313.08 K, 1000 kPa, x2 = 0.8991) read?
The mass density was 654.3 ± 0.27 kg/m3.

And the mass density (313.08 K, 2000 kPa, x2 = 0.8991)?
The mass density was 655.28 ± 0.28 kg/m3.

What about the mass density (313.08 K, 3000 kPa, x2 = 0.8991) of the same compound?
The mass density was 656.28 ± 0.29 kg/m3.

And the mass density (313.08 K, 4000 kPa, x2 = 0.8991)?
Its mass density is 657.3 ± 0.3 kg/m3.

And the mass density (313.08 K, 5000 kPa, x2 = 0.8991)?
The mass density was 658.33 ± 0.31 kg/m3.

And the mass density (313.08 K, 6000 kPa, x2 = 0.8991)?
Its mass density is 659.37 ± 0.31 kg/m3.

And the mass density (313.08 K, 7000 kPa, x2 = 0.8991)?
The mass density was 660.42 ± 0.32 kg/m3.

What about the mass density (313.08 K, 8000 kPa, x2 = 0.8991) of the same compound?
Its mass density is 661.47 ± 0.33 kg/m3.

What about the mass density (313.08 K, 9000 kPa, x2 = 0.8991) of the same compound?
The mass density was 662.52 ± 0.34 kg/m3.

And the mass density (313.08 K, 10000 kPa, x2 = 0.8991)?
The mass density was 663.56 ± 0.35 kg/m3.

And the mass density (313.08 K, 11000 kPa, x2 = 0.8991)?
Its mass density is 664.61 ± 0.36 kg/m3.

What about the mass density (313.08 K, 12000 kPa, x2 = 0.8991) of the same compound?
The mass density was 665.63 ± 0.37 kg/m3.

And the mass density (313.08 K, 13000 kPa, x2 = 0.8991)?
The mass density was 666.66 ± 0.38 kg/m3.

What about the mass density (313.08 K, 14000 kPa, x2 = 0.8991) of the same compound?
Its mass density is 667.66 ± 0.39 kg/m3.

And the mass density (313.08 K, 15000 kPa, x2 = 0.8991)?
The mass density was 668.63 ± 0.4 kg/m3.

What about the mass density (313.08 K, 16000 kPa, x2 = 0.8991) of the same compound?
Its mass density is 669.61 ± 0.41 kg/m3.

And the mass density (313.08 K, 17000 kPa, x2 = 0.8991)?
The mass density was 670.54 ± 0.41 kg/m3.

What about the mass density (313.08 K, 18000 kPa, x2 = 0.8991) of the same compound?
The mass density was 671.45 ± 0.42 kg/m3.

What about the mass density (313.08 K, 19000 kPa, x2 = 0.8991) of the same compound?
The mass density was 672.34 ± 0.43 kg/m3.

And the mass density (313.08 K, 20000 kPa, x2 = 0.8991)?
The mass density was 673.21 ± 0.44 kg/m3.

And the mass density (313.08 K, 21000 kPa, x2 = 0.8991)?
The mass density was 674.04 ± 0.45 kg/m3.

What about the mass density (313.08 K, 22000 kPa, x2 = 0.8991) of the same compound?
The mass density was 674.91 ± 0.46 kg/m3.

And the mass density (313.08 K, 23000 kPa, x2 = 0.8991)?
Its mass density is 675.69 ± 0.47 kg/m3.

And the mass density (313.08 K, 24000 kPa, x2 = 0.8991)?
The mass density was 676.48 ± 0.48 kg/m3.

And the mass density (313.08 K, 25000 kPa, x2 = 0.8991)?
Its mass density is 677.31 ± 0.49 kg/m3.

What about the mass density (313.17 K, 1000 kPa, x2 = 0.2185) of the same compound?
Its mass density is 704.92 ± 0.26 kg/m3.

And the mass density (313.17 K, 2000 kPa, x2 = 0.2185)?
The mass density was 705.74 ± 0.26 kg/m3.

What about the mass density (313.17 K, 3000 kPa, x2 = 0.2185) of the same compound?
The mass density was 706.66 ± 0.27 kg/m3.

What about the mass density (313.17 K, 4000 kPa, x2 = 0.2185) of the same compound?
The mass density was 707.53 ± 0.27 kg/m3.

And the mass density (313.17 K, 5000 kPa, x2 = 0.2185)?
The mass density was 708.39 ± 0.28 kg/m3.

What about the mass density (313.17 K, 6000 kPa, x2 = 0.2185) of the same compound?
Its mass density is 709.25 ± 0.29 kg/m3.

And the mass density (313.17 K, 7000 kPa, x2 = 0.2185)?
Its mass density is 710.11 ± 0.29 kg/m3.

And the mass density (313.17 K, 8000 kPa, x2 = 0.2185)?
Its mass density is 710.96 ± 0.3 kg/m3.

And the mass density (313.17 K, 9000 kPa, x2 = 0.2185)?
The mass density was 711.8 ± 0.31 kg/m3.

What about the mass density (313.17 K, 10000 kPa, x2 = 0.2185) of the same compound?
The mass density was 712.63 ± 0.32 kg/m3.

And the mass density (313.17 K, 10990 kPa, x2 = 0.2185)?
The mass density was 713.46 ± 0.32 kg/m3.

And the mass density (313.17 K, 12000 kPa, x2 = 0.2185)?
The mass density was 714.27 ± 0.33 kg/m3.

What about the mass density (313.17 K, 13000 kPa, x2 = 0.2185) of the same compound?
The mass density was 715.05 ± 0.34 kg/m3.

What about the mass density (313.17 K, 14000 kPa, x2 = 0.2185) of the same compound?
The mass density was 715.84 ± 0.35 kg/m3.

And the mass density (313.17 K, 15000 kPa, x2 = 0.2185)?
Its mass density is 716.63 ± 0.35 kg/m3.

What about the mass density (313.17 K, 16000 kPa, x2 = 0.2185) of the same compound?
Its mass density is 717.4 ± 0.36 kg/m3.

What about the mass density (313.17 K, 17000 kPa, x2 = 0.2185) of the same compound?
The mass density was 718.15 ± 0.37 kg/m3.

What about the mass density (313.17 K, 18000 kPa, x2 = 0.2185) of the same compound?
Its mass density is 718.88 ± 0.38 kg/m3.

What about the mass density (313.17 K, 19000 kPa, x2 = 0.2185) of the same compound?
The mass density was 719.62 ± 0.38 kg/m3.

And the mass density (313.17 K, 20000 kPa, x2 = 0.2185)?
The mass density was 720.34 ± 0.39 kg/m3.

What about the mass density (313.17 K, 21000 kPa, x2 = 0.2185) of the same compound?
Its mass density is 721.06 ± 0.4 kg/m3.

And the mass density (313.17 K, 22000 kPa, x2 = 0.2185)?
Its mass density is 721.76 ± 0.41 kg/m3.

What about the mass density (313.17 K, 23000 kPa, x2 = 0.2185) of the same compound?
Its mass density is 722.46 ± 0.42 kg/m3.

What about the mass density (313.17 K, 24000 kPa, x2 = 0.2185) of the same compound?
Its mass density is 723.13 ± 0.42 kg/m3.

And the mass density (313.17 K, 25000 kPa, x2 = 0.2185)?
The mass density was 723.78 ± 0.43 kg/m3.

What about the mass density (313.18 K, 1000 kPa, x2 = 0.0456) of the same compound?
The mass density was 713.33 ± 0.25 kg/m3.

What about the mass density (313.18 K, 1000 kPa, x2 = 0.7524) of the same compound?
Its mass density is 668.32 ± 0.27 kg/m3.

What about the mass density (313.18 K, 2000 kPa, x2 = 0.0456) of the same compound?
Its mass density is 714.22 ± 0.26 kg/m3.

And the mass density (313.18 K, 2000 kPa, x2 = 0.7524)?
The mass density was 669.4 ± 0.27 kg/m3.

And the mass density (313.18 K, 3000 kPa, x2 = 0.0456)?
Its mass density is 715.11 ± 0.26 kg/m3.

What about the mass density (313.18 K, 3000 kPa, x2 = 0.7524) of the same compound?
Its mass density is 670.46 ± 0.28 kg/m3.

And the mass density (313.18 K, 4000 kPa, x2 = 0.0456)?
Its mass density is 715.98 ± 0.27 kg/m3.

And the mass density (313.18 K, 4000 kPa, x2 = 0.7524)?
Its mass density is 671.5 ± 0.29 kg/m3.

And the mass density (313.18 K, 5000 kPa, x2 = 0.0456)?
The mass density was 716.84 ± 0.28 kg/m3.

What about the mass density (313.18 K, 5000 kPa, x2 = 0.7524) of the same compound?
The mass density was 672.55 ± 0.3 kg/m3.

What about the mass density (313.18 K, 6000 kPa, x2 = 0.0456) of the same compound?
Its mass density is 717.69 ± 0.28 kg/m3.

And the mass density (313.18 K, 6000 kPa, x2 = 0.7524)?
The mass density was 673.61 ± 0.31 kg/m3.

And the mass density (313.18 K, 7000 kPa, x2 = 0.0456)?
The mass density was 718.53 ± 0.29 kg/m3.

What about the mass density (313.18 K, 7000 kPa, x2 = 0.7524) of the same compound?
The mass density was 674.58 ± 0.31 kg/m3.

What about the mass density (313.18 K, 8000 kPa, x2 = 0.0456) of the same compound?
The mass density was 719.34 ± 0.3 kg/m3.

And the mass density (313.18 K, 8000 kPa, x2 = 0.7524)?
Its mass density is 675.56 ± 0.32 kg/m3.

What about the mass density (313.18 K, 9000 kPa, x2 = 0.0456) of the same compound?
Its mass density is 720.15 ± 0.3 kg/m3.

What about the mass density (313.18 K, 9000 kPa, x2 = 0.7524) of the same compound?
Its mass density is 676.55 ± 0.33 kg/m3.

What about the mass density (313.18 K, 10000 kPa, x2 = 0.0456) of the same compound?
Its mass density is 720.95 ± 0.31 kg/m3.

What about the mass density (313.18 K, 10000 kPa, x2 = 0.7524) of the same compound?
The mass density was 677.5 ± 0.34 kg/m3.

And the mass density (313.18 K, 10990 kPa, x2 = 0.0456)?
The mass density was 721.74 ± 0.32 kg/m3.

What about the mass density (313.18 K, 10990 kPa, x2 = 0.7524) of the same compound?
Its mass density is 678.44 ± 0.35 kg/m3.

And the mass density (313.18 K, 12000 kPa, x2 = 0.0456)?
The mass density was 722.51 ± 0.32 kg/m3.

What about the mass density (313.18 K, 12000 kPa, x2 = 0.7524) of the same compound?
The mass density was 679.36 ± 0.36 kg/m3.

And the mass density (313.18 K, 13000 kPa, x2 = 0.0456)?
The mass density was 723.28 ± 0.33 kg/m3.

What about the mass density (313.18 K, 13000 kPa, x2 = 0.7524) of the same compound?
The mass density was 680.27 ± 0.37 kg/m3.

What about the mass density (313.18 K, 14000 kPa, x2 = 0.0456) of the same compound?
Its mass density is 724.03 ± 0.34 kg/m3.

What about the mass density (313.18 K, 14000 kPa, x2 = 0.7524) of the same compound?
Its mass density is 681.18 ± 0.38 kg/m3.

What about the mass density (313.18 K, 15000 kPa, x2 = 0.0456) of the same compound?
The mass density was 724.78 ± 0.35 kg/m3.

What about the mass density (313.18 K, 15000 kPa, x2 = 0.7524) of the same compound?
Its mass density is 682.08 ± 0.38 kg/m3.

And the mass density (313.18 K, 16000 kPa, x2 = 0.0456)?
Its mass density is 725.51 ± 0.35 kg/m3.

What about the mass density (313.18 K, 16000 kPa, x2 = 0.7524) of the same compound?
Its mass density is 682.96 ± 0.39 kg/m3.

What about the mass density (313.18 K, 17000 kPa, x2 = 0.0456) of the same compound?
Its mass density is 726.24 ± 0.36 kg/m3.

And the mass density (313.18 K, 17000 kPa, x2 = 0.7524)?
Its mass density is 683.82 ± 0.4 kg/m3.

What about the mass density (313.18 K, 18000 kPa, x2 = 0.0456) of the same compound?
Its mass density is 726.96 ± 0.37 kg/m3.

And the mass density (313.18 K, 18000 kPa, x2 = 0.7524)?
The mass density was 684.65 ± 0.41 kg/m3.

And the mass density (313.18 K, 19000 kPa, x2 = 0.0456)?
The mass density was 727.67 ± 0.38 kg/m3.

And the mass density (313.18 K, 19000 kPa, x2 = 0.7524)?
The mass density was 685.47 ± 0.42 kg/m3.

And the mass density (313.18 K, 20000 kPa, x2 = 0.0456)?
The mass density was 728.36 ± 0.38 kg/m3.

And the mass density (313.18 K, 20000 kPa, x2 = 0.7524)?
The mass density was 686.29 ± 0.43 kg/m3.

And the mass density (313.18 K, 21000 kPa, x2 = 0.0456)?
The mass density was 729.05 ± 0.39 kg/m3.

What about the mass density (313.18 K, 21000 kPa, x2 = 0.7524) of the same compound?
The mass density was 687.07 ± 0.44 kg/m3.

What about the mass density (313.18 K, 22000 kPa, x2 = 0.0456) of the same compound?
Its mass density is 729.74 ± 0.4 kg/m3.
